# Reference: patent publication US20250089717A1, “FUNGICIDAL HALOMETHYL KETONES, HYDRATES AND ENOL ETHERS AND THEIR MIXTURES” (FMC CORPORATION, priority 2023, published 2025)
# System: Phakopsora pachyrhizi
# Assay: Test A: preventive spray on soybean seedlings, Asian soybean rust, visual disease rating
# Type: in vivo
# Conditions: rate 10 ppm
# Source text: General protocol for preparing test suspensions for Test A: the test compounds were first dissolved in acetone in an amount equal to 3% of the final volume and then suspended at the desired concentration (in ppm) in acetone and purified water (50/50 mix by volume) containing 250 ppm of the surfactant PEG400 (polyhydric alcohol esters). The resulting test suspensions were then used in Test A.
# The test solution was sprayed to the point of run-off on soybean seedlings. The following day the seedlings were inoculated with a spore suspension of Phakopsora pachyrhizi (the causal agent of Asian soybean rust) and incubated in a saturated atmosphere at 22° C. for 24 h and then moved to a growth chamber at 22° C. for 8 days, after which time visual disease ratings were made.
# A rating of 100 indicates 100% disease control and a rating of 0 indicates no disease control (relative to the controls).
row,Structure (SMILES),"Test A rating (100 = 100% disease control, 0 = no disease control relative to the controls) [%]"
1,CCO/C(=C\Oc1ccc(Cn2cc(C(=O)NOCC(F)(F)F)cn2)c(F)c1F)C(F)(F)F [Compound 79],100
2,CCO/C(=C\Oc1ccc(Cn2cc(C(=O)NOCC3CC3)cn2)c(F)c1F)C(F)(F)F [Compound 80],100
3,CCO/C(=C\Oc1ccc(Cn2cc(C(=O)NOCC#N)cn2)c(F)c1)C(F)(F)F [Compound 81],100
4,CCO/C(=C\Oc1ccc(Cn2cc(C(=O)NOCC3CC3)cn2)c(F)c1)C(F)(F)F [Compound 82],100
5,C=CCONC(=O)c1cn(Cc2ccc(O/C=C(\OCC)C(F)(F)F)cc2)nn1 [Compound 83],99
6,C=C=CC(=O)NCc1cnn(Cc2ccc(OCC3(C(F)(F)F)OCCO3)cc2)c1 [Compound 84],99
7,CCOC(=O)OCc1cnn(Cc2ccc(OCC3(C(F)(F)F)OCCO3)cc2)c1 [Compound 85],86
8,"C#CCONC(=O)c1cccc(Cc2ccc(O/C=C(\OCC)C(F)(F)F)cc2)n1 [Compound 125, 2-[[4-1[[(1Z)-2-ethoxy-3,3,3-trifluoro-1-propen-1-yl]oxy]phenyl]methyl]-N-(2-propyn-1-yloxy)-6-pyridinecarboxamide]",100
9,"CCO/C(=C\Oc1ccc(Cc2cccc(C(=O)NOCC(F)(F)F)n2)cc1)C(F)(F)F [Compound 127, 2-[[4-1[[(1Z)-2-ethoxy-3,3,3-trifluoro-1-propen-1-yl]oxy]phenyl]methyl]-N-(2,2,2-trifluoroethoxy)-6-pyridinecarboxamide]",99
10,"C#CCONC(=O)c1cc(Cc2ccc(O/C=C(\OCC)C(F)(F)F)cc2)ccn1 [Compound 131, 4-[[4-1[[(1Z)-2-ethoxy-3,3,3-trifluoro-1-propen-1-yl]oxy]phenyl]methyl]-N-(2-propyn-1-yloxy)-2-pyridinecarboxamide]",100
11,"CCO/C(=C\Oc1ccc(Cc2ccnc(C(=O)NOCC3CC3)c2)cc1)C(F)(F)F [Compound 132, 4-[[4-1[[(1Z)-2-ethoxy-3,3,3-trifluoro-1-propen-1-yl]oxy]phenyl]methyl]-N-(cyclopropylmethoxy)-2-pyridinecarboxamide]",100
12,"CCO/C(=C\Oc1ccc(Cc2ccnc(C(=O)NOCC(F)(F)F)c2)cc1)C(F)(F)F [Compound 133, 4-[[4-1[[(1Z)-2-ethoxy-3,3,3-trifluoro-1-propen-1-yl]oxy]phenyl]methyl]-N-(2,2,2-trifluoroethoxy)-2-pyridinecarboxamide]",100
13,CCO/C(=C\Oc1ccc(Cn2cc(CC(=O)OCC3CC3)cn2)cc1)C(F)(F)F [compound 13],96
14,C=CCOC(=O)Cc1cnn(Cc2ccc(O/C=C(\OCC)C(F)(F)F)cc2)c1 [compound 14],96
15,CCO/C(=C\Oc1ccc(Cn2cc(COC(=O)C(Cl)Cl)cn2)cc1)C(F)(F)F [compound 16],100
16,CCO/C(=C\Oc1ccc(Cn2cc(COC(=O)C(F)(F)Cl)cn2)cc1)C(F)(F)F [compound 19],100
17,CCO/C(=C\Oc1ccc(Cn2cc(CON(C(C)=O)C(C)=O)cn2)cc1)C(F)(F)F [compound 20],79
18,CCO/C(=C\Oc1ccc(Cn2cc(COC(=O)CC#N)cn2)cc1)C(F)(F)F [compound 24],100
19,CCO/C(=C\Oc1ccc(Cn2cc(C(=O)NOCC3CC3)cn2)cc1)C(F)(F)F [compound 25],100
20,CCO/C(=C\Oc1ccc(Cn2cc(COC(=O)CCC(=O)OC)cn2)cc1)C(F)(F)F [compound 26],100
21,CCO/C(=C\Oc1ccc(Cn2cc(COC(=O)C3CCCC3)cn2)cc1)C(F)(F)F [compound 29],100
22,CCO/C(=C\Oc1ccc(Cn2cc(C(=O)NOCC=CCl)cn2)cc1)C(F)(F)F [compound 32],100
23,CCO/C(=C\Oc1ccc(Cn2cc(C(=NOCC3CC3)OC)cn2)cc1)C(F)(F)F [compound 34],97
24,CCO/C(=C\Oc1ccc(Cn2cc(COC(=O)C(CC)CC)cn2)cc1)C(F)(F)F [compound 36],100
25,CCO/C(=C\Oc1ccc(Cn2cc(C(=O)N(C)OCC3CC3)cn2)cc1)C(F)(F)F [compound 39],100

# Same assay, conditions: rate 10 ppm, read-out: Test A rating (100 = 100% disease control, 0 = no disease control relative to the controls)
row,Structure (SMILES),pest or weed control at 10 ppm [%]
1,"C=CCON(C)C(=O)c1cccc(Cc2ccc(O/C=C(\OCC)C(F)(F)F)cc2)n1 [Compound 108, 2-[[4-[[(1Z)-2-ethoxy-3,3,3-trifluoro-1-propen-1-yl]oxy]phenyl]methyl]-N-methyl-N-(2-propen-1-yloxy)-6-pyridinecarboxamide]",100
2,"C=CCONC(=O)c1cccc(Cc2ccc(O/C=C(\OCC)C(F)(F)F)cc2)n1 [Compound 109, 2-[[4-[[(1Z)-2-ethoxy-3,3,3-trifluoro-1-propen-1-yl]oxy]phenyl]methyl]-N-(2-propen-1-yloxy)-6-pyridinecarboxamide]",100
3,"C=CCON(CC)C(=O)c1cc(Cc2ccc(O/C=C(\OCC)C(F)(F)F)cc2)ccn1 [Compound 119, 4-[[4-[[(1Z)-2-ethoxy-3,3,3-trifluoro-1-propen-1-yl]oxy]phenyl]methyl]-N-ethyl-N-(2-propen-1-yloxy)-2-pyridinecarboxamide]",100
4,"CCO/C(=C\Oc1ccc(Cc2cccc(C(=O)N(C)OCC(F)(F)F)n2)cc1)C(F)(F)F [Compound 120, 2-[[4-[[(1Z)-2-ethoxy-3,3,3-trifluoro-1-propen-1-yl]oxy]phenyl]methyl]-N-(2,2,2-trifluoroethoxy)-N-methyl-6-pyridinecarboxamide]",100
5,"C#CCON(C)C(=O)c1cccc(Cc2ccc(O/C=C(\OCC)C(F)(F)F)cc2)n1 [Compound 121, 2-[[4-[[(1Z)-2-ethoxy-3,3,3-trifluoro-1-propen-1-yl]oxy]phenyl]methyl]-N-methyl-N-(2-propyn-1-yloxy)-6-pyridinecarboxamide]",100
6,"CCO/C(=C\Oc1ccc(Cc2cccc(C(=O)N(C)OCC3CC3)n2)cc1)C(F)(F)F [Compound 123, 2-[[4-[[(1Z)-2-ethoxy-3,3,3-trifluoro-1-propen-1-yl]oxy]phenyl]methyl]-N-(cyclopropylmethoxy)-N-methyl-6-pyridinecarboxamide]",100
7,"CCO/C(=C\Oc1ccc(Cc2cccc(C(=O)NOCC3CC3)n2)cc1)C(F)(F)F [Compound 124, 2-[[4-[[(1Z)-2-ethoxy-3,3,3-trifluoro-1-propen-1-yl]oxy]phenyl]methyl]-N-(cyclopropylmethoxy)-6-pyridinecarboxamide]",100

# Same assay, conditions: rate 50 ppm
row,Structure (SMILES),"Test A rating (100 = 100% disease control, 0 = no disease control relative to the controls) [%]"
1,COCC(=O)OCc1cnn(Cc2ccc(OCC3(C(F)(F)F)OCCO3)cc2)c1 [Compound 86],100
2,COCCC(=O)OCc1cnn(Cc2ccc(OCC3(C(F)(F)F)OCCO3)cc2)c1 [Compound 87],100
3,O=C(CC1CC1)OCc1cnn(Cc2ccc(OCC3(C(F)(F)F)OCCO3)cc2)c1 [Compound 88],100
4,C=CCC(=O)OCc1cnn(Cc2ccc(OCC3(C(F)(F)F)OCCO3)cc2)c1 [Compound 89],100
5,CC(=O)OCc1cnn(Cc2ccc(OCC3(C(F)(F)F)OCCO3)cc2)c1 [Compound 90],100
6,CCOC(=O)C(=O)OCc1cnn(Cc2ccc(OCC3(C(F)(F)F)OCCO3)cc2)c1 [Compound 91],100
7,CC(C)CC(=O)OCc1cnn(Cc2ccc(OCC3(C(F)(F)F)OCCO3)cc2)c1 [Compound 92],100
8,O=C(CC(F)(F)F)OCc1cnn(Cc2ccc(OCC3(C(F)(F)F)OCCO3)cc2)c1 [Compound 93],100
9,C#CCOCc1cnn(Cc2ccc(OCC3(C(F)(F)F)OCCO3)cc2)c1 [Compound 94],100
10,CCO/C(=C\Oc1ccc(Cn2cc(COC(=O)N(C)C)cn2)cc1)C(F)(F)F [compound 8],60
11,CCO/C(=C\Oc1ccc(Cn2cc(COC(=O)NC)cn2)cc1)C(F)(F)F [compound 15],100
